{
  "source": "patent US20130109643A1",
  "about": "“METABOLIC INHIBITOR AGAINST TUMORS HAVING AN IDH MUTATION” (The Johns Hopkins University, priority 2010, published 2013)",
  "key": {"[1]": {"system": "D54 glioblastoma cells overexpressing WT or R132H IDH1", "assay": "alamarBlue cell growth assay, D54 glioblastoma lines overexpressing WT or R132H IDH1", "type": "cell-based, human", "description": "(§1) Standard techniques were used to introduce the R132H mutation into human IDH1 engineered with a 6×-His-tag and produce lentivirus containing either WT or mutant IDH1. D54 cells or transformed normal human astrocytes (TNA) were transduced with virus, and lines were grown from individual cells using limiting dilution. IDH1 expression in response to […] doxycycline was confirmed using a 6×-His tag antibody (Millipore). Liquid chromatography/mass spectrometry was conducted as previously described. Dang L., et al., Cancer-associated IDH1 mutations produce 2-hydroxyglutarate. Nature 2009; 462:739-44. siRNA was used to knock down glutaminase, and cells were assessed for knockdown using Western blotting. Gao P., et al., c-Myc suppression of miR-23a/b enhances mitochondria/glutaminase expression and glutamine metabolism. Nature 2009; 458:762-5. Cell growth assays using alamarBlue were carried out as described following DMSO or bis-2-(5-phenylacetamido-1,2,4-thiadiazol-2-yl)ethyl sulfide (BPTES) treatment. Liolome W., et al., Glioblastoma cell growth is suppressed by disruption of Fibroblast Growth Factor pathway signaling. J Neurooncol 2009:94:359-66. […] [3H]-glutamate was isolated from the reaction mixture using anion exchange and measured using a scintillation counter. […] Data were evaluated using a two-tailed Student's t-test. P≦0.05 was considered significant.\nD54 or TNA cells were transduced with virus containing WT or R132H IDH1. D54 cells were transduced using virus containing pLVCT-tTR-KRAB constructs, and TNA were transduced with virus containing Duet011 constructs. Lines were grown from individual cells using limiting dilution and tested for IDH1 expression. Expression was confirmed using Western blot and 6×-His-tag antibodies (Millipore). 0.04 μg/mL doxycycline was used to induce expression for D54 lines. Cells were maintained in DMEM, 10% FBS, 4.5 g/L glucose, and penicillin/streptomycin. Transformed normal human astrocytes (TNA) were a gift from Christopher M. Counter.\nCell growth assays using alamarBlue were carried out as described. Loilome W., et al., Glioblastoma cell growth is suppressed by disruption of Fibroblast Growth Factor pathway signaling. J Neurooncol 2009; 94(3):359-66. Cells were plated at a density of 500 cells/well in a 96-well black clear bottom plate (Becton Dickinson)."}, "[2]": {"system": "mutant IDH1 cells", "assay": "Annexin V staining (flow cytometry)", "type": "cell-based, human", "details": "10 μM BPTES, 24 hrs, vs DMSO", "description": "Cells were plated at a density of 2×10^5 cells/well in a 6-well plate. Media was changed to media with or without doxycyline 24 hrs after plating."}, "[3]": {"system": "mutant IDH1 cells", "assay": "Caspase 3/7 activation assay (Caspase-Glo 3/7)", "type": "cell-based, human", "details": "10 μM BPTES, 24 hrs, vs DMSO", "description": "Cells were plated at a density of 5000 cells/well in a 96-well black clear bottom plate (Becton Dickinson). 24 hrs after plating, media was changed to fresh media with or without 0.04 μg/mL doxycycline."}, "[4]": {"system": "transformed normal human astrocytes (TNA) overexpressing R132H or WT IDH1", "assay": "alamarBlue cell growth assay, transformed normal human astrocytes (TNA) expressing WT or R132H IDH1", "type": "cell-based", "details": "48 hours", "description": "as §1, with “significant. […]” for “significant.”"}, "[5]": {"system": "D54 cells overexpressing WT or R132H IDH1", "assay": "LC/MS metabolite levels in WT and mutant IDH1 D54 cells", "type": "cell-based, human", "details": "10 mmol/L BPTES, 48 hours", "description": "as §1\n3×10^5 (untreated) or 7.5×10^5 (BPTES-treated) cells were seeded in a T75 flask. 24 hrs post-plating, media on the cells was changed to 4.5 g/L glucose, 10% HyClone dialyzed FBS (ThermoScientific), penicillin/streptomycin, 4 mM glutamine and 0.04 μg/mL doxycycline to induce IDH1 expression. […] Metabolites were measured in one of two ways: using a reverse phase column with tributylamine as an ion pairing agent, Luo B., et al., Simultaneous determination of multiple intracellular metabolites in glycolysis, pentose phosphate pathway and tricarboxylic acid cycle by liquid chromatography-mass spectrometry. J Chromatogr 2007; 1147(2):153-64, coupled to a Thermo Exactive Mass Spectrometer operating at 100,000 resolving power using a mass range of ±5 ppm or single reaction monitoring on a Thermo TSQ Quantum Triple Quadrupole Mass Spectrometer coupled to an aminopropyl HPLC column. Bajad S. U., et al., Separation and quantitation of water soluble cellular metabolites by hydrophilic interaction chromatography-tandem mass spectrometry. J Chromatogr 2006; 1125(1):76-88. Signals were normalized to cell number prior to data analysis."}, "[6]": {"system": "primary acute myelogenous leukemia (AML) cells with mutant or wild-type IDH1", "assay": "Growth curves of primary AML cells (trypan blue counting)", "type": "cell-based, human", "details": "BPTES at 20 or 40 μM vs DMSO vehicle", "description": "Primary AML cells were cultured in RPMI-1640 media with 20% fetal bovine serum (FBS), 20% 5637 cell-conditioned media and 1% antibiotics as previously described (Miyauchi et al., 1987). Growth curves were generated by manual counting of viable cells as assessed by trypan blue exclusion on a hemocytometer. The detail of the procedure is as following: (1) The frozen cells are thawed and added into 10 mL of the media in a tissue culture flask and grown in a humidified incubator at 37° C. and 5% CO2 for 4-5 days. Cells were counted every 24-48 h to estimate the cells needed for the experiment. […] Then, 10-20 mL media containing each desired concentration of the drug were prepared. […] By doing this, the concentration of DMSO is constant and not more than 0.1%. BPTES is precipitated in PBS, so avoid dilution with PBS. […] When the cells were well homogenized, they were counted by 1:1 trypan blue exclusion with hemocytometer. […] The starting number for each cell line among control/DMSO/drug must be the same and is calculated based on the count from the cell-containing PBS solution. […] (6) Cells were counted every other day using a hemocytometer after staining with trypan blue (1:1). […] Cells were counted in the 4 outer squares of the hemocytometer, and the number was divided by 2 (=n). […] When cell concentration was low, more grids were counted and the cell concentrations were calculated accordingly."}},
  "data": [
    {"smiles": "O=C(O[C@@H]1Cc2c(O)cc(O)cc2O[C@@H]1c1cc(O)c(O)c(O)c1)c1cc(O)c(O)c(O)c1", "note": "[EGCG, epigallocatechin gallate]", "values": [
      {"measurement": "sensitivity of growth, mutant vs WT IDH1 cells", "setting": "[1]; EGCG, 0.1 g/L glucose, 72 hrs", "result": "more sensitive"}
    ]},
    {"smiles": "NOCC(=O)O", "note": "[AOA, amino-oxyacetic acid]", "values": [
      {"measurement": "sensitivity of growth, mutant vs WT IDH1 cells", "setting": "[1]; AOA, 1.5 g/L glucose, 48 hrs", "result": "more sensitive"}
    ]},
    {"smiles": "COC(=O)CCC(=O)C(=O)OC", "note": "[dimethyl-α-ketoglutarate]", "values": [
      {"measurement": "rescue of BPTES growth inhibition at higher BPTES concentrations", "setting": "[1]; 1 mmol/L dimethyl-α-ketoglutarate, 50 or 100 mmol/L BPTES", "result": "not blocked"},
      {"measurement": "rescue of BPTES growth inhibition", "setting": "[1]; mutant IDH1 cells, 1 mmol/L dimethyl-α-ketoglutarate added to BPTES", "result": "significantly reduced growth inhibition"}
    ]},
    {"smiles": "O=C(Cc1ccccc1)Nc1nnc(CCSCCc2nnc(NC(=O)Cc3ccccc3)s2)s1", "note": "[BPTES]", "values": [
      {"measurement": "Annexin V staining", "setting": "[2]", "result": "does not increase"},
      {"measurement": "effect on growth, mutant vs WT IDH1 cells", "setting": "[1]; D54+R132H compared with D54 and D54+WT IDH1, 48 hours", "result": "preferentially slowed growth of mutant IDH1 cells"},
      {"measurement": "growth reduction", "setting": "[1]; mutant IDH1 D54 cells, 48 hours", "result": "about 20%"},
      {"measurement": "Caspase 3/7 induction", "setting": "[3]", "result": "does not increase"},
      {"measurement": "sensitivity of growth, mutant vs WT IDH1 cells", "setting": "[4]", "result": "mutant IDH1 cells also were more sensitive"},
      {"measurement": "levels of glycolytic intermediates (fructose-1,6-bisphosphate, dihydroxy-acetone-phosphate, 3-phosphoglycerate)", "setting": "[5]", "result": "increased"},
      {"measurement": "tricarboxylic acid cycle intermediates (succinate and malate) and aspartate levels", "setting": "[5]", "result": "decreases"},
      {"measurement": "citrate levels", "setting": "[5]; WT IDH1 cells", "result": "decreased"},
      {"measurement": "glutamate levels", "setting": "[5]; WT and mutant IDH1 cells", "result": "diminished"},
      {"measurement": "α-KG levels", "setting": "[5]; WT and mutant IDH1 cells", "result": "diminished"},
      {"measurement": "citrate levels", "setting": "[5]; mutant IDH1 cells", "result": "increased"},
      {"measurement": "2-HG levels", "setting": "[5]; treated mutant IDH1 cells", "result": "remained unchanged"},
      {"measurement": "cell killing, mIDH1 vs wild-type AML cells", "setting": "[6]", "result": "selectively kills"}
    ]}
  ]
}
